The source of these data is patent US20260055097A9, “NRF2 PROTEIN DEGRADERS” (Ganymede Oncology, Inc., priority 2022, published 2026).

What all share (assay type): cell-based
The subject of one experiment is A549. Description: Cancer cell viability, A549 (CellTiter-Glo). Conditions: Homo sapiens, 72 h, A549 cells, 3 days, read-out: Cellular IC50 (μM) A549. Here is the method:
Representative Compounds of the Disclosure were tested in A549 (Vendor: ATCC; Cat #CCL-185; Description: lung, carcinoma) and/or LK-2 (Vendor: Riken; Cat #RCB1970; Description: lung, squamous cell carcinoma) cellular viability assays according to the following general protocol. • 1. Observed the cells under microscope. • 2. Aspirated the media and added 5 mL trypsin and incubate for 3 mins. • 3. Added 10 mL fresh media and harvested all the cells in to 15 mL tubes. • 4. Centrifuged the cells at 1000 rpm for 5 mins. • 5. Re-suspended the cells with 11 mL media and took 1 mL to determine the cell number and viability. • 6. Prepared cells suspension at 20 K/mL (A549) or 35 K/mL (LK-2) • 7. Seeded the cells into 96-well plate and incubated for overnight. • 8. […] After 3 days, took out the plates from the incubator and observed the cells under microscope. • 10. Passed a film at the bottom of the plates. • 11. Equilibrated the plate and its contents at room temperature for approximately 30 minutes. • 12. Thawed the CellTiter-Glo® Buffer and equilibrated to room temperature prior to use. • 13. Equilibrated the lyophilized CellTiter-Glo® Substrate to room temperature prior to use. • 14. Transferred 100 ml of CellTiter-Glo® Buffer into the amber bottle containing CellTiter-Glo® Substrate to reconstituted the lyophilized enzyme/substrate mixture. • 15. Mixed by gently vortexing, swirling or inverting the contents to obtain a homogeneous solution. • 16. Added 100 μL CellTiter-Glo® Reagent into each well • 17. Mixed contents for 15 minutes on an orbital shaker to induce cell lysis. • 18. Recorded luminescence with EnSpire machine. • 19. Passed the raw data into the file and analyzed the data with XLfit software.

In the next experiment the test system is LK-2. Description: Cancer cell viability, LK-2 (CellTiter-Glo). Conditions: Homo sapiens, LK-2, 72 h, LK-2 cells, 3 days, read-out: Cellular IC50 (μM) LK-2. Here is the method: Representative Compounds of the Disclosure were tested in A549 (Vendor: ATCC; Cat #CCL-185; Description: lung, carcinoma) and/or LK-2 (Vendor: Riken; Cat #RCB1970; Description: lung, squamous cell carcinoma) cellular viability assays according to the following general protocol. • 1. Observed the cells under microscope. • 2. Aspirated the media and added 5 mL trypsin and incubate for 3 mins. • 3. Added 10 mL fresh media and harvested all the cells in to 15 mL tubes. • 4. Centrifuged the cells at 1000 rpm for 5 mins. • 5. Re-suspended the cells with 11 mL media and took 1 mL to determine the cell number and viability. • 6. Prepared cells suspension at 20 K/mL (A549) or 35 K/mL (LK-2) • 7. Seeded the cells into 96-well plate and incubated for overnight. • 8. Added compounds into each well with a HPD300 machine (nine three-fold dilutions typically starting at 30 µM final concentration) and incubated for 3 days. • 9. After 3 days, took out the plates from the incubator and observed the cells under microscope. • 10. Passed a film at the bottom of the plates. • 11. Equilibrated the plate and its contents at room temperature for approximately 30 minutes. • 12. Thawed the CellTiter-Glo® Buffer and equilibrated to room temperature prior to use. • 13. Equilibrated the lyophilized CellTiter-Glo® Substrate to room temperature prior to use. • 14. Transferred 100 ml of CellTiter-Glo® Buffer into the amber bottle containing CellTiter-Glo® Substrate to reconstituted the lyophilized enzyme/substrate mixture. • 15. Mixed by gently vortexing, swirling or inverting the contents to obtain a homogeneous solution. • 16. Added 100 μL CellTiter-Glo® Reagent into each well • 17. Mixed contents for 15 minutes on an orbital shaker to induce cell lysis. • 18. Recorded luminescence with EnSpire machine. • 19. Passed the raw data into the file and analyzed the data with XLfit software.
(In general: ATP-based viability assays read luminescence as a measure of living cells.)

The next experiment has as its target T1, Nrf2 (Homo sapiens, UniProt Q16236).
T1 sequence (Q16236 1-605): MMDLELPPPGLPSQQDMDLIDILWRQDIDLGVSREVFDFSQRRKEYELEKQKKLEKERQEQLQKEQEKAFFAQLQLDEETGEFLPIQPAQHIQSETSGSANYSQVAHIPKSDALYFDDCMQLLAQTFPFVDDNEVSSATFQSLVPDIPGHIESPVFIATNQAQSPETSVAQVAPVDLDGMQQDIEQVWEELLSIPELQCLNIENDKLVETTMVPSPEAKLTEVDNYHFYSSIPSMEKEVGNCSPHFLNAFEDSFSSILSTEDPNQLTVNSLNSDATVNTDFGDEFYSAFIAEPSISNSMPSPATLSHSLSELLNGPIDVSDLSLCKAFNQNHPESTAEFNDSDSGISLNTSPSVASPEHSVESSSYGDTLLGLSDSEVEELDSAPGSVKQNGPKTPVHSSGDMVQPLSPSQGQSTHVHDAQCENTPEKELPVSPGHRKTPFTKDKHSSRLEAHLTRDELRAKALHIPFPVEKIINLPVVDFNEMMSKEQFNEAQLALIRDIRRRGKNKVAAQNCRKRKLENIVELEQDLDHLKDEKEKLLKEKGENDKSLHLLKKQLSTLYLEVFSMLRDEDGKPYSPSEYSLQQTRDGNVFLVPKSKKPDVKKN
Description: Nrf2 degradation in A549 HiBiT-Nrf2 cells, Nano-Glo HiBiT lytic detection (HiBiT readout). Details: host or cells: A549 HiBiT-Nrf2 cells (engineered line bought from Promega). How it is done:
A549 HiBiT-Nrf2 cells (Promega, Cat. No. CS3023219) were seeded into 384-well plates at cell density of 5,000 cells/well in 40 μL of cell culture medium (Ham's F-12 Nutrient Mix supplemented with 10% FBS and 1% antibiotic-antimycotic).
The next day, cells were treated with representative Compounds of the Disclosure and incubated for 6 h and 20 h at 37° C., 5% CO2. Staurosporine was used as a control.
At the end of incubation Nrf2 degradation (HiBiT readout) and cell viability (CellTiter-Glo readout) were determined. For HiBiT readout, Nano-Glo HiBiT Reagent mix (Promega, Cat. No. N3050) was added to wells, plates were incubated 2 min on an orbital shaker and incubated at room temperature in the dark for additional 30 minutes. At the end of incubation luminescence was measured using ultrasensitive luminescence mode (Envision, Perkin Elmer).
On the technique in general: The HiBiT peptide binds its large partner to form an active luciferase.

Where [1] appears, read: 6 h, read-out: DC50 (nM) at 6 h.
Where [2] appears, read: 20 h, read-out: DC50 (nM) at 20 h.

Like-named read-outs stand apart in the source and are kept apart here. A value given as a limit tells only on which side of the number the result lay.

With `Cc1ccccc1C(=O)N1CCc2cc(-c3nc(NC(=O)Cc4cccc(OCCOCCOc5ccc6c(c5)C(=O)N(C5CCC(=O)NC5=O)C6=O)c4)sc3C)ccc21` (stereo not shown) [Cpd. No. 18, 2-(3-(2-(2-((2-(2,6-dioxopiperidin-3-yl)-1,3-dioxoisoindolin-5-yl)oxy)ethoxy)ethoxy)phenyl)-N-(5-methyl-4-(1-(2-methylbenzoyl)indolin-5-yl)thiazol-2-yl)acetamide], the IC50 (as a rule, the concentration that inhibits the measured activity by half) in the experiment with A549 came out at 0.1 µM; with LK-2, 0.04 µM. The figures for the DC50 on Nrf2 (setting [1]) and on Nrf2 (setting [2]) were 300 to 3000 nM and more than 3000 nM, respectively.

As to `Cc1ccccc1C(=O)N1CCc2cc(-c3nc(NC(=O)Cc4cccc(OCCOCCNc5ccc6c(c5)C(=O)N(C5CCC(=O)NC5=O)C6=O)c4)sc3C)ccc21` (stereo not shown) [Cpd. No. 20, 2-(3-(2-(2-((2-(2,6-dioxopiperidin-3-yl)-1,3-dioxoisoindolin-5-yl)amino)ethoxy)ethoxy)phenyl)-N-(5-methyl-4-(1-(2-methylbenzoyl)indolin-5-yl)thiazol-2-yl)acetamide], the IC50 was 0.3 µM with A549 and 0.06 µM in the experiment on LK-2. Also, the DC50 on Nrf2 (setting [1]) and on Nrf2 (setting [2]) was 300 to 3000 nM each time.

Consider `Cc1ccccc1C(=O)N1CCc2cc(-c3nc(NC(=O)Cc4cccc(OCCOCCOCCNc5ccc6c(c5)C(=O)N(C5CCC(=O)NC5=O)C6=O)c4)sc3C)ccc21` (stereo not shown) [Cpd. No. 21, 2-(3-(2-(2-(2-((2-(2,6-dioxopiperidin-3-yl)-1,3-dioxoisoindolin-5-yl)amino)ethoxy)ethoxy)ethoxy)phenyl)-N-(5-methyl-4-(1-(2-methylbenzoyl)indolin-5-yl)thiazol-2-yl)acetamide], for which the IC50 with A549 and in the experiment with LK-2 was more than 30 µM each time.

Turning to `Cc1sc(NC(=O)Cc2cccc(OCCOCCNc3ccc4c(c3)C(=O)N(C3CCC(=O)NC3=O)C4=O)c2)nc1-c1ccc2c(c1)CCN2C(=O)C1CC1` (stereo not shown) [Cpd. No. 22, N-(4-(1-(cyclopropanecarbonyl)indolin-5-yl)-5-methylthiazol-2-yl)-2-(3-(2-(2-((2-(2,6-dioxopiperidin-3-yl)-1,3-dioxoisoindolin-5-yl)amino)ethoxy)ethoxy)phenyl) acetamide], the values for the IC50 with A549 and with LK-2 were 0.3 µM and 0.06 µM, respectively.

Regarding `Cc1sc(NC(=O)Cc2cccc(OCCOCCNc3ccc4c(c3)C(=O)N(C3CCC(=O)NC3=O)C4=O)c2)nc1-c1ccc2c(c1)CCN2C(=O)c1cncn1C` (stereo not shown) [Cpd. No. 23, 2-(3-(2-(2-((2-(2,6-dioxopiperidin-3-yl)-1,3-dioxoisoindolin-5-yl)amino)ethoxy)ethoxy)phenyl)-N-(5-methyl-4-(1-(1-methyl-1H-imidazole-5-carbonyl)indolin-5-yl)thiazol-2-yl)acetamide], the IC50 was determined as 0.09 µM in the experiment with A549 and 0.02 µM with LK-2.

`Cc1ccccc1C(=O)N1CCc2cc(-c3nc(NC(=O)Cc4cccc(OCCCCN5CCN(c6ccc7c(c6)C(=O)N(C6CCC(=O)NC6=O)C7=O)CC5)c4)sc3C)ccc21` (stereo not shown) [Cpd. No. 26, 2-(3-(4-(4-(2-(2,6-dioxopiperidin-3-yl)-1,3-dioxoisoindolin-5-yl)piperazin-1-yl)butoxy)phenyl)-N-(5-methyl-4-(1-(2-methylbenzoyl)indolin-5-yl)thiazol-2-yl)acetamide]: the IC50 with A549 was more than 30 µM; in the experiment with LK-2, 0.8 µM.

Regarding `Cc1sc(NC(=O)Cc2ccc(F)c(OCCOCCNc3ccc4c(c3)C(=O)N(C3CCC(=O)NC3=O)C4=O)c2)nc1-c1ccc2c(c1)CCN2C(=O)C1CC1` (stereo not shown) [Cpd. No. 27, N-(4-(1-(cyclopropanecarbonyl)indolin-5-yl)-5-methylthiazol-2-yl)-2-(3-(2-(2-((2-(2,6-dioxopiperidin-3-yl)-1,3-dioxoisoindolin-5-yl)amino)ethoxy)ethoxy)-4-fluorophenyl)acetamide], the IC50 with A549 is 0.08 µM; with LK-2 it was 0.03 µM. The DC50 at Nrf2 (setting [1]) and on Nrf2 (setting [2]) was less than 300 nM each time.

For `Cc1ccccc1C(=O)N1CCc2cc(-c3nc(NC(=O)Cc4cccc(OCCCCN5CCN(c6cccc7c6C(=O)N(C6CCC(=O)NC6=O)C7=O)CC5)c4)sc3C)ccc21` (stereo not shown) [Cpd. No. 33, 2-(3-(4-(4-(2-(2,6-dioxopiperidin-3-yl)-1,3-dioxoisoindolin-4-yl)piperazin-1-yl)butoxy)phenyl)-N-(5-methyl-4-(1-(2-methylbenzoyl)indolin-5-yl)thiazol-2-yl)acetamide], the IC50 in the experiment on A549 and in the experiment with LK-2 was more than 30 µM in each case.

On to `Cc1sc(C(=O)NCc2cccc(OCCOCCNc3ccc4c(c3)C(=O)N(C3CCC(=O)NC3=O)C4=O)c2)nc1-c1ccc2c(c1)CCN2C(=O)C1CC1` (stereo not shown) [Cpd. No. 38, 4-(1-(cyclopropanecarbonyl)indolin-5-yl)-N-(3-(2-(2-((2-(2,6-dioxopiperidin-3-yl)-1,3-dioxoisoindolin-5-yl)amino)ethoxy)ethoxy)benzyl)-5-methylthiazole-2-carboxamide], for which the IC50 in the experiment with A549 is 0.2 µM; with LK-2, 0.04 µM.

On to `Cc1sc(C(=O)Nc2cccc(OCCOCCNc3ccc4c(c3)C(=O)N(C3CCC(=O)NC3=O)C4=O)c2)nc1-c1ccc2c(c1)CCN2C(=O)C1CC1` (stereo not shown) [Cpd. No. 39, 4-(1-(cyclopropanecarbonyl)indolin-5-yl)-N-(3-(2-(2-((2-(2,6-dioxopiperidin-3-yl)-1,3-dioxoisoindolin-5-yl)amino)ethoxy)ethoxy)phenyl)-5-methylthiazole-2-carboxamide], for which the IC50 in the experiment on A549 and in the experiment on LK-2 was more than 30 µM in each case.

With `Cc1ccccc1C(=O)N1CCc2cc(-c3nc(NC(=O)Cc4cccc(OCCCN5CCN(c6ccc7c(c6)C(=O)N(C6CCC(=O)NC6=O)C7=O)CC5)c4)sc3C)ccc21` (stereo not shown) [compound 25, 2-(3-(3-(4-(2-(2,6-dioxopiperidin-3-yl)-1,3-dioxoisoindolin-5-yl)piperazin-1-yl)propoxy)phenyl)-N-(5-methyl-4-(1-(2-methylbenzoyl)indolin-5-yl)thiazol-2-yl)acetamide], the IC50 in the experiment on A549 and with LK-2 was more than 30 µM each time.
